What was measured:
[1] = test system: mice with renal ischemia-reperfusion; assay: Unilateral renal ischemia-reperfusion acute kidney injury; type: in vivo, C57BL/6 mice
Experimental: 8-week-old C57BL/6 mice (weighing about 20-25 g) were injected intraperitoneally with 50 mg/kg sodium pentobarbital. After the mice were anesthetized, carried out preserved skin and placed on a thermostatic table, the skin and muscle of the right side were incised from the back and the right kidney was exposed, and the tissue around the pedicle of the kidney was stripped off with forceps to expose the blood vessels and the ureter. The arterial and venous blood vessels and the ureter were ligated with sutures. After removing the kidney, the muscle and skin were sutured with sutures and placed at 37° C. to wake it up, and after waking up, the mice were given […] of I-1. The experiments were divided into a sham group (exposing the right side of the kidney without removing it), a control group (giving solvent treatment by oral gavage), a 10 mg/kg group (10 mg/kg I-1 by oral gavage) and a 30 mg/kg group (30 mg/kg I-1 by oral gavage), with being administered once a day, and left kidney ischemia-reperfusion was performed on the sixth day, the specific plan was: mice were injected intraperitoneally with 50 mg/kg sodium pentobarbital, after anesthetizing, carried out preserved skin and placed on a thermostatic table, the skin and muscle of the left side were cut from the back and the left kidney was exposed, and the tissue around the pedicle of the kidney was stripped off with forceps to expose the blood vessels, and the arterial clip were used to tighten the blood vessel, after ischemia for 45 min, the arterial clip were released and the kidney tissue was returned to its place with a cotton swab, and finally the muscle and skin were sutured with a suture lines and the mice were placed at 37° C. to wake it up, and given another drug treatment after waking up. Blood was taken from the eyeball after 24 h of reperfusion, and the blood was centrifuged at 12000 g for 10 min at 4° C. after standing at room temperature for 45 min, and the supernatant (serum) was taken to detect the level of creatinine and urea nitrogen in the serum with a biochemical analyzer.
After blood extraction from the mouse eyeballs, cardiac perfusion was performed with PBS, after mice were anesthetized and fixed on a foam plate with a needle, the skin and ribs of the chest and abdomen were cut open to expose the heart, the injection needle was inserted into the left ventricle of mice and the pericardium was cut open at the same time, and the perfusion was performed with PBS at a speed of 7 rpm until the liver turned white and then the perfusion was stopped, the kidneys were taken out, and the renal peritoneum was removed, and the kidneys were put into 4% paraformaldehyde and fixed and immersed for 72 h. Subsequently, tissue embedding was carried out. Then tissue embedding, sectioning and HE staining were performed as follows:
Tissue was dewaxed after embedding and sectioning, and performed antigen repair, 5% goat serum sealing solution was added dropwise at 37° C. for 40 min, 50 μl of KIM-1 and caspase3 primary antibody (1:500) was added dropwise, overnight at 4° C.; after rewarming at 37° C. for 30 min, the tissue was washed by PBS four times, each time for 5 min. And then fluorescence secondary antibody was added dropwise for Ih, and the tissue was washed by PBS four times, each time for 5 min, finally, the tissue was stained by DAPI for 10 min, sealed with nail polish, and images were collected by cytation 3.

[2] = test system: middle artery occlusion model in rats; assay: Stroke: middle cerebral artery occlusion (MCAO); type: in vivo, SD rats; conditions: for escape latency (water maze) / number of crossing over the platform (water maze) / apoptosis rate of hippocampal neurons (flow cytometry): 30 mg/kg oral gavage; for escape latency (water maze) / number of crossing over the platform (water maze): 8 weeks; for escape latency (water maze): FIG. 82; for number of crossing over the platform (water maze): FIG. 83; for apoptosis rate of hippocampal neurons (flow cytometry): FIG. 84
From the text: 7-8 weeks-old SD male rats were selected and adaptively fed for one week to establish a middle artery occlusion model in rats. After inducing anesthesia in rats using a small animal anesthesia machine, the anesthesia was immediately switched to maintenance, the rats were fixed in the supine position on the operating table, the neck in the middle and the right side of the operative part were shaved, and an incision was made in the middle of the neck after disinfection with alcohol and iodine vapors, and the carotid artery was separated along the tissues under the microscope, to avoid damaging blood vessels and nerves and to reduce the amount of hemorrhage; the electrocoagulation pen was used to cut off small arteries in the paracarotid branch and ligate the external carotid artery, and an another loose knot was played for backup; arterial clips were used to clip the proximal end of internal carotid artery and common carotid artery; the external carotid artery was cut with surgical scissors in the […], the filament was inserted carefully, and the marking point reached the bifurcation of internal and external carotid arteries, which meant that the head of the filament has already reached the middle cerebral artery; the skin was sutured, the symptoms were observed when the animal waked up, and the neurological function was evaluated; the suture line was cut open two hours after the surgery, the filament was drawn out, and ligature the remnant of external carotid artery was ligated tightly. The skin was re-sutured and attention was paid to the postoperative care of the rats. After modeling, drug administration was started in groups, which were divided into three groups: model group (model, treated with 0.5% CMC-Na by oral gavage, n=8) TJ01-013 treatment group (TJ01-013, 30 mg/kg TJ01-013 by oral gavage, n=8), and I-14-1 treatment group (I-14-1, 30 mg/kg I-14-1 by oral gavage, n=8). 8). Another normal control group (Control, 0.5% CMC-Na treatment by oral gavage, n=8) was set up, with performing the corresponding surgical operation, but no carotid artery was ligated and no filament insertion was performed, and the normal control group was administered for a total of 8 weeks, and at the end of the administration, the cognitive function of the rats was examined by using the water maze.
The night before the experiment begins, clean the laboratory and the water maze, the old water in the water maze is drained, the animal excreta should be cleaned up, and the laboratory is ventilated and free of special odor. The water maze was filled with fresh water, and the height of the water surface should be about 2 cm higher than the platform, and the four groups of rats underwent the water maze acclimatization training for 5 days. The above training was divided into a 4-day localization navigation experiment and a 1-day spatial exploration experiment. The water maze device was a circular pool, which was divided into quadrants I, II, III and IV with four equidistant points on the wall, and a circular hidden platform was placed in the center of the fourth quadrant. References were around the pool and kept unchanged, the pool and the platform were black, and black ink was poured into the water and mixed thoroughly so that the rats could not see the circular platform. The temperature of the water was kept at 22˜24° C. and the light in the room was stabilized. For each group of rats, a water maze test was performed at the end of drug administration to examine the cognitive status of the experimental animals. […] The four groups of rats underwent this training for 4 days, four times a day, two times in the morning and two times in the afternoon. At the end of each day, the experimenter thoroughly cleaned the water maze apparatus to prevent the odor of the rats in the water maze from affecting the results of the second day of the experiment. […]

[3] = reperfusion 24 h, oral gavage 10 mg/kg and 30 mg/kg, FIG. 1

SMILES	damage to renal tissues (HE staining) ([1]; FIG. 2)	KIM-1 level in renal tissue (immunostaining) ([1]; FIG. 3)	cleaved-caspase3 level in renal tissue (immunostaining) ([1]; FIG. 3)	serum creatinine level [1, 3]	serum urea nitrogen level [1, 3]	escape latency (water maze) [2]	number of crossing over the platform (water maze) [2]	apoptosis rate of hippocampal neurons (flow cytometry) [2]	therapeutic effect of TJ01-013 compared with I-14-1 ([2]; per readout of the block)	treatment of renal ischemia-reperfusion injury compared with I-1 ([1]; UMI-77 group vs I-1)
O=C(O)C[S+]([O-])c1cc(NS(=O)(=O)c2ccc(Br)cc2)c2ccccc2c1O (stereo not shown) [I-1]	alleviated the damage to renal tissues	inhibited	inhibited	significantly reduced	significantly reduced	shorten the escape latency	increased	significantly reduce	significantly better	
O=C(O)C[S+]([O-])c1cc(NS(=O)(=O)c2ccc(C(F)(F)F)cc2)c2ccccc2c1O (stereo not shown) [I-14-1]						shorten the escape latency	increased	significantly reduce		
O=C(O)CSc1cc(NS(=O)(=O)c2ccc(Br)cc2)c2ccccc2c1O [UMI-77, reference compound]										less effective

Reference: patent publication US20260027073A1, “USE OF SMALL-MOLECULE COMPOUND HAVING NAPHTHYLAMINE STRUCTURE” (HANGZHOU PHECDAMED CO., LTD., priority 2023, published 2026)
